From article PMC5522529, “Mechanisms of Paradoxical Activation of AMPK by the Kinase Inhibitors SU6656 and Sorafenib” (Cell Chemical Biology, 2017)

Experiments:
Assay type in all cases: cell-based
AMPK-γ2 (WT) = target: T1, AMPK-γ2 (WT) (Homo sapiens, UniProt Q9UGJ0); assay: AMPK activity in HEK293 cells expressing WT AMPK-γ2; details: 1 hr
T1 construct: expressed in transfected cells; host or cells: Flp-In T-REx 293 (HEK293), tetracycline-inducible
Text: (§1) The next possibility was that, like several other AMPK-activating drugs, SU6656 inhibits mitochondrial ATP synthesis, and thus activates AMPK indirectly by increasing cellular AMP/ADP. To test this, we used cell lines inducibly expressing either WT AMPK-γ2 or an AMP/ADP-resistant R531G (RG) mutant ([Hawley et al., 2010]). […] There were no effects of SU6656 on cellular oxygen uptake, unlike berberine. Subsequent addition of the uncoupler 2,4-dinitrophenol (DNP), which prevents the respiratory chain from being limited by ADP supply, increased oxygen uptake identically in control and SU6656-treated cells but had no effect following berberine, as expected for a complex I inhibitor (Figure S2).
(§2) (B) WT or RG cells were treated as in (A) and nucleotides extracted for analysis (mean ± SD, n = 3). […] (E) (See also Figure S2) Time courses of cellular oxygen uptake before and after addition of the indicated concentrations of sorafenib (SO, μM), SU6656 (100 μM) or phenformin (PHEN, 10 mM) (mean ± SEM, n = 4). (F) Effect of various concentrations of sorafenib or phenformin (10 mM) on activation (top, mean ± SEM, n = 3) or phosphorylation (bottom) of AMPK in cells expressing wild-type AMPK-γ2 (WT) or the R531G mutant AMPK-γ2 (RG). In all panels, asterisks show significant differences from DMSO controls (ns, not significant). In (B), daggers (†) show significant differences between results in WT and RG cells. *p < 0.05, **p < 0.01, ***p < 0.001, ****p < 0.0001, ^††††p < 0.0001.
(§3) HEK-293 cells stably expressing tetracycline-inducible FLAG-tagged human AMPK-γ2, or an R531G mutant, were generated by introducing the corresponding DNAs into Flp-In™ T-REx™ 293 cells ([Auciello et al., 2014]). Expression of the FLAG-tagged constructs was induced for 48 hr using tetracycline (1 μg.ml^-1) prior to addition of compounds under test. Transient transfections were carried out 36-48 hr prior to experiments, using Fugene 6 according to manufacturers’ instructions.

[1] = target: T2, AMPK-γ2 R531G (RG) mutant (Homo sapiens, UniProt Q9UGJ0, R531G); assay: AMPK activity in HEK293 cells expressing R531G AMPK-γ2; details: 1 hr
T2 construct: expressed in transfected cells
Text: as §1, §2, §3

AMPK-α1 AA mutant = target: T3, AMPK-α1 AA mutant (Homo sapiens, UniProt Q13131, K40A/K42A); assay: AMPK activity of FLAG-tagged AMPK-α1 K40A/K42A (AA) mutant expressed in HEK293 cells
T3 construct: Plasmid encoding full-length human AMPK-α1; expressed in transfected cells; host or cells: HEK293
Text: (B) Western blotting of the same preparations as in (A). […] (D) Allosteric activation of WT and mutant α1β1γ1 complexes by MT 63-78, curve fitting as for (C). […] (E) Allosteric activation of WT and mutant α1β1γ1 complexes by AMP. Data were fitted to the equation for activation/inactivation by AMP ([Gowans et al., 2013]). […] (F) Activation of WT and AA mutant by various AMPK activators in HEK293 cells. […] FLAG-tagged complexes were isolated by immunoprecipitation and AMPK activity determined (mean ± SEM, n = 2).
We next expressed the FLAG-tagged WT or AA mutant of AMPK-α1 by transient transfection in HEK293 cells, treated with various agents, and measured AMPK activity in anti-FLAG immunoprecipitates. In Figure 4F, the results are expressed as absolute activities and are accompanied by blots showing Thr172 phosphorylation.

[2] = target: T4, α1 kinase domain (α1-KD, residues 1–312) (Homo sapiens, UniProt Q13131); assay: Activity of FLAG-tagged α1 kinase domain expressed in HEK293 cells; details: 1 hr
T4 construct: amplifying residues 1-312 with an N-terminal FLAG-tag; expressed in transfected cells; host or cells: HEK293 (transient transfection, pcDNA5 FRT)
Text: We next expressed an FLAG-tagged α1 kinase domain (α1-KD, residues 1–312) by transient transfection in HEK293 cells, treated the cells with various AMPK activators, and then assayed both the expressed α1-KD (precipitated using anti-FLAG) and endogenous full-length α1 complexes (precipitated using anti-α1 antibodies recognizing an epitope outside the α1-KD). […] This was also observed with A23187, as expected since this ionophore increases intracellular Ca^2+ and activates the alternate upstream kinase CaMKK2.
The α1-KD was precipitated using anti-FLAG and endogenous AMPK complexes using anti-α1 antibody, and activity determined. Results (mean ± SD, n = 2) are expressed relative to activities in DMSO controls. (B) Western blots (n = 2) using the indicated antibodies; samples from experiment in (A). (C) DNAs encoding FLAG-tagged AMPK-α1 (WT or AT mutant) were expressed by transient transfection in HEK293 cells, the cells treated with increasing concentrations of SU6656 for 1 hr, AMPK complexes precipitated with anti-FLAG, and activity measured. Results (mean ± SD, n = 3) are expressed relative to the DMSO control. […] Results (mean ± SD, n = 3) are expressed relative to the DMSO control. **p < 0.01, ***p < 0.001, ****p < 0.0001, ^†††p < 0.001; ns, not significant.
A plasmid encoding the AMPK-α2 kinase domain (α2-KD) was made by amplifying residues 1-310 with 5' BamH1 and 3' Xho1 sites, the resulting PCR product was cloned into pGEX6P2. Point mutations were generated using the Quikchange II site-directed mutagenesis kit (Stratagene) and confirmed by DNA sequencing.

T2 sequence (Q9UGJ0 whole entry R531G): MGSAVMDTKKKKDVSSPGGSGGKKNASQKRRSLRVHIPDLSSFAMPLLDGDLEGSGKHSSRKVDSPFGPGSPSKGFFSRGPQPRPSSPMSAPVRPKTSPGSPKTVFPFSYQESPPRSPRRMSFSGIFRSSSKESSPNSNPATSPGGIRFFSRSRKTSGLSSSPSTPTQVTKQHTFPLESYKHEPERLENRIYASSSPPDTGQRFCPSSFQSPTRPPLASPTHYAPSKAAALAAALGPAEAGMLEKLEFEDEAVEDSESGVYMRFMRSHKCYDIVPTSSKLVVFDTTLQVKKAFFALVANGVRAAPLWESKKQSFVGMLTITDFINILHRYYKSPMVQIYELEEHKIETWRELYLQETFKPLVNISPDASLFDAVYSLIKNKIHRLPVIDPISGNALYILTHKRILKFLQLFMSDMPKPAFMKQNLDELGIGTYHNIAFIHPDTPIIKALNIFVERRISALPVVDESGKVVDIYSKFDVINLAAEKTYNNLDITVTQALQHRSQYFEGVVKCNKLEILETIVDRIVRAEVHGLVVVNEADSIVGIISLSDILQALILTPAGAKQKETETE
T1 sequence (Q9UGJ0 whole entry): as the sequence (Q9UGJ0 whole entry R531G) above, with G531R counted along it
T4 sequence (Q13131 1-312): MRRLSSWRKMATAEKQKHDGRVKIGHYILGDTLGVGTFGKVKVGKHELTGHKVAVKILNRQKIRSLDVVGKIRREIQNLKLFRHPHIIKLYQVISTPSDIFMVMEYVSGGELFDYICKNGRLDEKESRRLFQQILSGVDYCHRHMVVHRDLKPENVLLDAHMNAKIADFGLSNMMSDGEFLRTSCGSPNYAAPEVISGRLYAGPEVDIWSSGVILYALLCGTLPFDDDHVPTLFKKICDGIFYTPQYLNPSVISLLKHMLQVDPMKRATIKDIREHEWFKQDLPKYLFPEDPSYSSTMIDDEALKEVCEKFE
T3 sequence (Q13131 whole entry K40A/K42A): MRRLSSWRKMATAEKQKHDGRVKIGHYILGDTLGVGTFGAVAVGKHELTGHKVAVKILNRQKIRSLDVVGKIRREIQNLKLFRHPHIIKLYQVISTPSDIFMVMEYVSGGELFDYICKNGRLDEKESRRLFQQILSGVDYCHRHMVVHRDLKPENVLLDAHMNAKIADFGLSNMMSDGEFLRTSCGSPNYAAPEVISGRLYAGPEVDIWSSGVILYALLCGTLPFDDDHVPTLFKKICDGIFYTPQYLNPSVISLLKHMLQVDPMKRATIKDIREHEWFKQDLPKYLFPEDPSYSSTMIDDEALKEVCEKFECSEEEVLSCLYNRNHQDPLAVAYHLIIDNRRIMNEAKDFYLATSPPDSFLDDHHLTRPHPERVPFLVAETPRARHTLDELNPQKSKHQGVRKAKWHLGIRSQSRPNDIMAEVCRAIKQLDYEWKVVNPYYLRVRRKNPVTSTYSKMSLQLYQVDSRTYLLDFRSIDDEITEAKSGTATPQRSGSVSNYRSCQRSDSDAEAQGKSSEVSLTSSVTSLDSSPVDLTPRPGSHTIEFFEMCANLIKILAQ
T3 sequence (P54619 whole entry partner): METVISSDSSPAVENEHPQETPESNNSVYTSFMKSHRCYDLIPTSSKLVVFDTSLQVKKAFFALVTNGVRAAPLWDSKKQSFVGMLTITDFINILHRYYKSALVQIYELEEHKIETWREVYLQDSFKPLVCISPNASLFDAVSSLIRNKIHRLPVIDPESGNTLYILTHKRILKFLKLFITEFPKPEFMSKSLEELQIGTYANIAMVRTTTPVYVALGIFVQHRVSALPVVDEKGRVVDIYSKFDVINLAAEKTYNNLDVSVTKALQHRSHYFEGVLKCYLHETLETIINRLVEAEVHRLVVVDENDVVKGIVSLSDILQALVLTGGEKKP

Structure (SMILES)	AMPK activity (AMPK-γ2 (WT))	AMPK activity [1]	increase in activity and Thr172 phosphorylation (AMPK-α1 AA mutant; AA mutant FLAG-α1, 100 μM, relative to DMSO control) [fold]	kinase activity / Thr172 phosphorylation [2]	effect of AA mutation on AMPK activation (AMPK-α1 AA mutant; AA mutant FLAG-α1, same concentrations, 1 hr)
CN(C)S(=O)(=O)c1ccc2c(c1)/C(=C/c1cc3c([nH]1)CCCC3)C(=O)N2 [SU6656]	activated AMPK and enhanced Thr172 phosphorylation in both WT and RG cells	activated AMPK and enhanced Thr172 phosphorylation in both WT and RG cells	3	increased kinase activity	–
COc1ccc2cc3[n+](cc2c1OC)CCc1cc2c(cc1-3)OCO2 [berberine]	activated AMPK in the WT	–	–	failed to activate or cause Thr172 phosphorylation	abolished
CNC(=O)c1cc(Oc2ccc(NC(=O)Nc3ccc(Cl)c(C(F)(F)F)c3)cc2)ccn1 [sorafenib]	–	Neither AMPK activity nor Thr172 phosphorylation were significantly elevated	–	–	–
